Experimental findings from patent US20120101083A1, “S1P1 AGONISTS COMPRISING A BICYCLIC N-CONTAINING RING” (GLAXO GROUP LIMITED, priority 2009, published 2012) are described below.

Counter-ions that a name gives are not always drawn.

The target in this assay is T1, S1P1 receptor (S1P1 expressing RH7777 membranes) (Homo sapiens, UniProt P21453).
T1 construct: expressed in transfected cells; host or cells: RH7777 cells (membranes)
Kind of assay: S1P1 GTPγS assay. In kind it is biochemical. The conditions noted are these: tested in one of the above S1P1 assays (two GTPγS formats). As for the experimental part: The potencies and efficacies of the compounds of this invention for the S1P1 receptor can be determined by GTPγS assay performed on the human cloned receptor as described herein.
Membrane preparation for S1P1 GTPγS assay
All steps were performed at 4° C. Cells were homogenised within a glass Waring blender for 2 bursts of 15 secs in 200 mls of buffer (50 mM HEPES, 1 mM leupeptin, 25 μg/ml bacitracin, 1 mM EDTA, 1 mM PMSF, 2 μM pepstatin A). The blender was plunged into ice for 5 mins after the first burst and 10-40 mins after the final burst to allow foam to dissipate. The material was then spun at 500 g for 20 mins and the supernatant spun for 36 mins at 48,000 g. The pellet was resuspended in the same buffer as above but without PMSF and pepstatin A. The material was then forced through a 0.6 mm needle, made up to the required volume, (usually x4 the volume of the original cell pellet), aliquoted and stored frozen at −80° C.
S1P1 expressing RH7777 membranes (1.5 μg/well) membranes (1.5 μg/well) were homogenised by passing through a 23 G needle. These were then adhered to WGA-coated SPA beads (0.125 mg/well) in assay buffer (HEPES 20 mM, MgCl2 10 mM, NaCl 100 mM and pH adjusted to 7.4 using KOH 5M). GDP 10 μM FAC and saponin 90 μg/ml FAC were also added
After 30 minutes precoupling on ice, the bead and membrane suspension was dispensed into white Greiner polypropylene LV 384-well plates (5 μl/well), containing […] of compound. 5 μl/well [^35S]-GTPγS (0.5 nM for S1P1 or 0.3 nM for S1P3 final radioligand concentration) made in assay buffer was then added to the plates. The final assay cocktail (10.1 μl) was then sealed, spun on a centrifuge, then read immediately on a Viewlux instrument.
Alternatively, after 30 minutes precoupling on ice, the bead and membrane suspension was mixed with ^35S]-GTPγS (0.5 nM final radioligand concentration) in assay buffer (HEPES 20 mM, MgCl2 10 mM, NaCl 100 mM and pH adjusted to 7.4 using KOH 5M) in a 1:1 ratio. The bead, membrane and radioligand suspension was dispensed into white Greiner polypropylene low volume 384-well plates (10 μl/well), containing 0.1 μl of a solution of test compound in 100% DMSO. The final assay cocktail (10.1 μl) was then sealed, spun on a centrifuge, then read immediately on a Viewlux instrument.

T1 sequence (P21453 whole entry): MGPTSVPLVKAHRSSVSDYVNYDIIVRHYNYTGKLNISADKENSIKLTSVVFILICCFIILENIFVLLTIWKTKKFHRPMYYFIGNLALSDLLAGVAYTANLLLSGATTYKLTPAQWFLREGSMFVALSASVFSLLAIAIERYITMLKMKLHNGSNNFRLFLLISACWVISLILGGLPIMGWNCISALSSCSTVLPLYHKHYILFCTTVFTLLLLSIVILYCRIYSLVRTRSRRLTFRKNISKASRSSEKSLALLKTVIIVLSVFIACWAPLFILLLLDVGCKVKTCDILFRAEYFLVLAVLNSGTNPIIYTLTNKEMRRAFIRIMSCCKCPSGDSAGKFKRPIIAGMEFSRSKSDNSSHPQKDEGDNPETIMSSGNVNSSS

Turning to `CC(C)Oc1ccc(-c2nc(-c3cccc4c3CCN(CCC(N)=O)CC4)no2)cc1C#N` [Example 32, 3-[6-(5-{3-Cyano-4-[(1-methylethyl)oxy]phenyl}-1,2,4-oxadiazol-3-yl)-1,2,4,5-tetrahydro-3H-3-benzazepin-3-yl]propanamide], the concentration for a half-maximal effect (EC50) (in general, the concentration giving half of the maximal effect) was not above 1000 nM.

`CC(C)Oc1ccc(-c2nnc(-c3ccc4c(c3)CCN(CCCO)CC4)s2)cc1C#N` [Example 29, 5-{5-[3-(3-Hydroxypropyl)-2,3,4,5-tetrahydro-1H-3-benzazepin-7-yl]-1,3,4-thiadiazol-2-yl}-2-[(1-methylethyl)oxy]benzonitrile] gave a half-maximal effective concentration (EC50) not above 1000 nM.

For `CC(C)Nc1ccc(-c2nc(-c3ccc4c(c3)CCN(CC(O)CO)CC4)no2)cc1C#N` (stereo not drawn) [Example 49, 5-{3-[3-(2,3-dihydroxypropyl)-2,3,4,5-tetrahydro-1H-3-benzazepin-7-yl]-1,2,4-oxadiazol-5-yl}-2-[(1-methylethyl)amino]benzonitrile], the EC50 was not above 100 nM.

Take `CNC(=O)CCCN1CCc2c(ccc(-c3nnc(-c4ccc(OC(C)C)c(C#N)c4)s3)c2C)C1` [Example 14, 4-[6-(5-{3-Cyano-4-[(1-methylethyl)oxy]phenyl}-1,3,4-thiadiazol-2-yl)-5-methyl-3,4-dihydro-2(1H)-isoquinolinyl]-N-methylbutanamide]: the EC50 was not above 1000 nM.

With `Cc1c(-c2noc(-c3ccc(OC(C)C)c(C#N)c3)n2)ccc2c1CCN(C(CO)CO)C2` [Example 65, 5-(3-{2-[2-hydroxy-1-(hydroxymethyl)ethyl]-5-methyl-1,2,3,4-tetrahydro-6-isoquinolinyl}-1,2,4-oxadiazol-5-yl)-2-[(1-methylethyl)oxy]benzonitrile], the concentration giving a half-maximal response (EC50) is not above 1000 nM.

As to `CCCOc1ncc(-c2nc(-c3ccc4c(c3)CCN(C[C@H](O)CO)CC4)no2)cc1C#N` [Example 115, 5-(3-{3-[(2S)-2,3-dihydroxypropyl]-2,3,4,5-tetrahydro-1H-3-benzazepin-7-yl}-1,2,4-oxadiazol-5-yl)-2-(propyloxy)-3-pyridinecarbonitrile], the EC50 was not above 1000 nM.

`CC(C)Oc1ccc(-c2nc(-c3ccc4c(c3)CCN(C(=O)C(C)(C)N)CC4)no2)cc1C#N` [Example 117, 5-{3-[3-(2-methylalanyl)-2,3,4,5-tetrahydro-1H-3-benzazepin-7-yl]-1,2,4-oxadiazol-5-yl}-2-[(1-methylethyl)oxy]benzonitrile] had an EC50 not above 1000 nM.

In turn, `CC(C)Oc1ccc(-c2nc(-c3ccc4c(c3)CCN(CCCO)CC4)no2)cc1C#N` [Example 20, 5-{3-[3-(3-Hydroxypropyl)-2,3,4,5-tetrahydro-1H-3-benzazepin-7-yl]-1,2,4-oxadiazol-5-yl}-2-[(1-methylethyl)oxy]benzonitrile] had a concentration for a half-maximal effect (EC50) not above 100 nM.

On to `N#Cc1cc(-c2nc(-c3ccc4c(c3)CCN(CC(O)CO)CC4)no2)ccc1N1CC(F)C1` (stereo not drawn) [Example 104, 5-{3-[3-(2,3-dihydroxypropyl)-2,3,4,5-tetrahydro-1H-3-benzazepin-7-yl]-1,2,4-oxadiazol-5-yl}-2-(3-fluoro-1-azetidinyl)benzonitrile], for which the EC50 is more than 10000 nM.

`CC(C)Oc1ccc(-c2nnc(-c3cccc4c3CCN(CCO)C4)s2)cc1C#N` [Example 38, 5-{5-[2-(2-hydroxyethyl)-1,2,3,4-tetrahydro-5-isoquinolinyl]-1,3,4-thiadiazol-2-yl}-2-[(1-methylethyl)oxy]benzonitrile] had an EC50 not above 1000 nM.

In the case of `CC(C)Oc1ccc(-c2nc(-c3cccc4c3CCN(CC(N)=O)CC4)no2)cc1C#N` [Example 31, 2-[6-(5-{3-Cyano-4-[(1-methylethyl)oxy]phenyl}-1,2,4-oxadiazol-3-yl)-1,2,4,5-tetrahydro-3H-3-benzazepin-3-yl]acetamide], the EC50 is not above 1000 nM.

`CCCNc1ccc(-c2nc(-c3ccc4c(c3)CCN(C(=O)CN)CC4)no2)cc1C#N` [Example 53, 5-[3-(3-glycyl-2,3,4,5-tetrahydro-1H-3-benzazepin-7-yl)-1,2,4-oxadiazol-5-yl]-2-(propylamino)benzonitrile] gave an EC50 not above 100 nM.

For the compound `Cc1c(-c2noc(-c3ccc(OC(C)C)c(C#N)c3)n2)ccc2c1CCN(CC(=O)NC[C@H](C)O)C2` [Example 121, 2-[6-(5-{3-cyano-4-[(1-methylethyl)oxy]phenyl}-1,2,4-oxadiazol-3-yl)-5-methyl-3,4-dihydro-2(1H)-isoquinolinyl]-N-[(2S)-2-hydroxypropyl]acetamide hydrochloride], the EC50 was not above 10 nM.

`CNCCCC(=O)N1CCc2ccc(-c3noc(-c4ccc(OC(C)C)c(C#N)c4)n3)cc2CC1` [Example 83, 5-(3-{3-[4-(methylamino)butanoyl]-2,3,4,5-tetrahydro-1H-3-benzazepin-7-yl}-1,2,4-oxadiazol-5-yl)-2-[(1-methylethyl)oxy]benzonitrile] showed an EC50 not above 1000 nM.

As for `CCCOc1ncc(-c2nc(-c3ccc4c(c3)CCN(C(CO)CO)CC4)no2)cc1C#N` [Example 109, 5-(3-{3-[2-hydroxy-1-(hydroxymethyl)ethyl]-2,3,4,5-tetrahydro-1H-3-benzazepin-7-yl}-1,2,4-oxadiazol-5-yl)-2-(propyloxy)-3-pyridinecarbonitrile], the EC50 is not above 1000 nM.

Regarding `N#Cc1cc(-c2nc(-c3ccc4c(c3)CCN(CC(O)CO)CC4)no2)ccc1OC(CF)CF` (stereo not drawn) [Example 60, 5-{3-[3-(2,3-dihydroxypropyl)-2,3,4,5-tetrahydro-1H-3-benzazepin-7-yl]-1,2,4-oxadiazol-5-yl}-2-{[2-fluoro-1-(fluoromethyl)ethyl]oxy}benzonitrile], the EC50 is not above 100 nM.

As for `CC(C)Oc1ccc(-c2nc(-c3ccc4c(c3)CCN(C(=O)CCCN)CC4)no2)cc1C#N` [Example 63, 5-{3-[3-(4-aminobutanoyl)-2,3,4,5-tetrahydro-1H-3-benzazepin-7-yl]-1,2,4-oxadiazol-5-yl}-2-[(1-methylethyl)oxy]benzonitrile], the EC50 is not above 100 nM.

In the case of `CCCNc1ccc(-c2nc(-c3ccc4c(c3)CCN(CC(O)CO)CC4)no2)cc1C#N` (stereo not drawn) [Example 50, 5-{3-[3-(2,3-dihydroxypropyl)-2,3,4,5-tetrahydro-1H-3-benzazepin-7-yl]-1,2,4-oxadiazol-5-yl}-2-(propylamino)benzonitrile], the EC50 was not above 100 nM.

The compound `CCCNc1ncc(-c2nc(-c3ccc4c(c3)CCN(C(CO)CO)CC4)no2)cc1C#N` [Example 150, 5-(3-{3-[2-hydroxy-1-(hydroxymethyl)ethyl]-2,3,4,5-tetrahydro-1H-3-benzazepin-7-yl}-1,2,4-oxadiazol-5-yl)-2-(propylamino)-3-pyridinecarbonitrile dihydrochloride] gave an EC50 not above 1000 nM.

`CC(C)Oc1ccc(-c2nc(-c3cccc4c3CCN(CCO)CC4)no2)cc1C#N` [Example 34, 5-{3-[3-(2-Hydroxyethyl)-2,3,4,5-tetrahydro-1H-3-benzazepin-6-yl]-1,2,4-oxadiazol-5-yl}-2-[(1-methylethyl)oxy]benzonitrile]: the EC50 was not above 100 nM.

Regarding `Cc1c(-c2noc(-c3ccc(OC(C)C)c(C#N)c3)n2)ccc2c1CCN(C(=O)CN)CC2` [Example 140, 5-[3-(3-glycyl-6-methyl-2,3,4,5-tetrahydro-1H-3-benzazepin-7-yl)-1,2,4-oxadiazol-5-yl]-2-[(1-methylethyl)oxy]benzonitrile hydrochloride], the EC50 is not above 100 nM.

As for `Cc1c(-c2noc(-c3ccc(OC(C)C)c(C#N)c3)n2)ccc2c1CCN(CC(=O)NC[C@@H](C)O)C2` [Example 120, 2-[6-(5-{3-cyano-4-[(1-methylethyl)oxy]phenyl}-1,2,4-oxadiazol-3-yl)-5-methyl-3,4-dihydro-2(1H)-isoquinolinyl]-N-[(2R)-2-hydroxypropyl]acetamide hydrochloride], the EC50 is not above 10 nM.

In turn, `CC(C)Oc1ccc(-c2nc(-c3ccc4c(c3)CCN(C(=O)CN3CCOCC3)CC4)no2)cc1C#N` [Example 91, 2-[(1-methylethyl)oxy]-5-{3-[3-(4-morpholinylacetyl)-2,3,4,5-tetrahydro-1H-3-benzazepin-7-yl]-1,2,4-oxadiazol-5-yl}benzonitrile hydrochloride] gave an EC50 not above 1000 nM.

Take `N#Cc1cc(-c2nc(-c3ccc4c(c3)CCN(C(=O)CN)CC4)no2)ccc1N1CCC(F)C1` (stereo not drawn) [Example 57, 2-(3-fluoro-1-pyrrolidinyl)-5-[3-(3-glycyl-2,3,4,5-tetrahydro-1H-3-benzazepin-7-yl)-1,2,4-oxadiazol-5-yl]benzonitrile]: the EC50 is not above 1000 nM.
